The values below come from patent publication US10821115B2, “Compounds that inhibit Mcl-1 protein” (priority 2017, dated 2020).

In test [1] the test system is human multiple myeloma cell line, OPM-2. Description: Cell viability assay (OPM-2 10 FBS), CellTiter-Glo. The test is classed as cell-based. In outline: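 IC50 values come from 4-parameter logistic fits of luminescence signals reflecting cell viability. Treatment lasted 16 h at 37 °C in complete medium with 10% FBS, starting from 3000 cells/well.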
Background: In ATP-based viability assays light output follows the ATP content of the culture.

The target in test [2] is recombinant human Mcl-1 (residues 171-327) / Bim interaction (Homo sapiens (Human), UniProt Q07820). The test is described as follows: biochemical. The class given is binding. Conditions: read-out: Mcl-1 HTRF IC50.
recombinant human Mcl-1 (residues 171-327) / Bim interaction, sequence (Q07820 171-327): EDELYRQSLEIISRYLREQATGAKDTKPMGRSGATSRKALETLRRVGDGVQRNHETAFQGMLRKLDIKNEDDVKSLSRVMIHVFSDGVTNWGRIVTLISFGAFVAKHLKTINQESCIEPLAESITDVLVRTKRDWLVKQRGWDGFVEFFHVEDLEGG
[3] abbreviates: read-out: OPM-2 10% FBS IC50 IP, OPM-2 cells, 10% FBS, 16 h, CellTiter-Glo.
Setting [4] is: TR-FRET, Mcl-1(171-327) / biotin-Bim (51-76).
The mark [5] stands for this setting: Homo sapiens, OPM-2, 16 h, read-out: OPM-2 10% FBS IC50 IP, OPM-2 cells, 10% FBS, 16 h incubation.
Setting [6] is: 0.1 nM Mcl-1(171-327), 0.05 nM biotin-Bim (51-76).
The mark [7] stands for this setting: read-out: OPM-2 10% FBS IC50 IP, OPM-2 cells, 10% FBS, 16 h incubation.
Setting [8] is: Homo sapiens, OPM-2, 16 h, read-out: OPM-2 10% FBS IC50 IP, OPM-2 cells, 10% FBS, 16 h, CellTiter-Glo.

Usually IC50 stands for the midpoint of a concentration-inhibition curve.

Structures are written as SMILES. Where two headings read alike, the source gives them in different places.

On to `C[C@@H]1[C@@H](C)CCC[C@@](O)(Cc2ccncn2)[C@@H]2CC[C@H]2CN2C[C@@]3(CCCc4cc(Cl)ccc43)COc3ccc(cc32)C(=O)NS1(=O)=O` [Example 100114, (1S,3′R,6′R,7′R,11′S,12′R)-6-chloro-7′-hydroxy-11′,12′-dimethyl-7′-(4-pyrimidinylmethyl)-3,4-dihydro-2H,15′H-spiro[naphthalene-1,22′-[20]oxa[13]thia[1,14]diazatetracyclo [14.7.2.0~3,6~.0~19,24~]pentacosa[16,18,24]trien]-15′-one 13′,13′-dioxide], for which the concentration for half-maximal inhibition (IC50) in test [1] (setting [3]) worked out at 491 nM; in test [2] (setting [4]) it was 1.05 nM.
Consider `CON(C)C[C@]1(OC)/C=C/C[C@H](C)[C@@H](C)S(=O)(=O)NC(=O)c2ccc3c(c2)N(C[C@@H]2CC[C@H]21)C[C@@]1(CCCc2cc(Cl)ccc21)CO3` [Example 212, (1S,3′R,6′R,7′S,8′E,11′S,12′R)-6-chloro-7′-methoxy-7′-((methoxy(methyl)amino)methyl)-11′,12′-dimethyl-3,4-dihydro-2H,15′H-spiro[naphthalene-1,22′-[20]oxa[13]thia[1,14]diazatetracyclo [14.7.2.0~3,6~.0~19,24~]pentacosa[8,16,18,24]tetraen]-15′-one 13′,13′-dioxide], for which the IC50 came to 307 nM in test [1] (setting [5]) and 0.122 nM in test [2] (setting [6]).
As for `CO[C@]1(CN2CC3(C2)CN(C(C)C)C3)/C=C/C[C@H](C)[C@@H](C)S(=O)(=O)NC(=O)c2ccc3c(c2)N(C[C@@H]2CC[C@H]21)C[C@@]1(CCCc2cc(Cl)ccc21)CO3` [Example 320, (1S,3′R,6′R,7′R,8′E,11′S,12′R)-6-chloro-7′-methoxy-11′,12′-dimethyl-7′-((6-(1-methylethyl)-2,6-diazaspiro[3.3]hept-2-yl)methyl)-3,4-dihydro-2H,15′H-spiro[naphthalene-1,22′-[20]oxa[13]thia[1,14]diazatetracyclo [14.7.2.0~3,6~.0~19,24~]pentacosa[8,16,18,24]tetraen]-15′-one 13′,13′-dioxide], the IC50 in test [1] (setting [5]) came out at 302 nM; in test [2] (setting [6]) it was 0.524 nM.
On to `CO[C@@]1(CO)CCC[C@H](C)[C@@H](C)S(=O)(=O)NC(=O)c2ccc3c(c2)N(C[C@@H]2CC[C@H]21)C[C@@]1(CCCc2cc(Cl)ccc21)CO3` (stereo in doubt) [Example 100184, (1S,3′R,6′R,7′S,11′S,12′R)-6-chloro-7′-(hydroxymethyl)-7′-methoxy-11′,12′-dimethyl-3,4-dihydro-2H,15′H-spiro[naphthalene-1,22′-[20]oxa[13]thia[1,14]diazatetracyclo [14.7.2.0~3,6~.0~19,24~]pentacosa[16,18,24]rien]-15′-one 13′,13′-dioxide], for which the IC50 came to 179 nM in test [1] (setting [3]) and 0.717 nM in test [2] (setting [4]).
With `CO[C@@]1(CN2CCN3CCC(F)(F)CC3C2)/C=C/C[C@H](C)[C@@H](C)S(=O)(=O)NC(=O)c2ccc3c(c2)N(C[C@@H]2CC[C@H]21)C[C@@]1(CCCc2cc(Cl)ccc21)CO3` (mixture of isomers) [Example 273], the IC50 in test [1] (setting [7]) was determined as 501 nM; in test [2] (setting [6]) it was 0.494 nM.
Take `CCOC[C@@]1(O)CCC[C@H](C)[C@@H](C)S(=O)(=O)NC(=O)c2ccc3c(c2)N(C[C@@H]2CC[C@H]21)C[C@@]1(CCCc2cc(Cl)ccc21)CO3` [Example 100190, (1S,3′R,6′R,7′R,11′S,12′R)-6-chloro-7′-(ethoxymethyl)-7′-hydroxy-11′,12′-dimethyl-3,4-dihydro-2H,15′H-spiro[naphthalene-1,22′-[20]oxa[13]thia[1,14]diazatetracyclo [14.7.2.0~3,6~.0~19,24~]pentacosa[16,18,24]trien]-15′-one 13′,13′-dioxide]: the half-inhibitory concentration (IC50) stood at 2480 nM in test [1] (setting [8]) and 4.79 nM in test [2] (setting [4]).
Turning to `COCC[C@@H]1[C@@H](C)C/C=C/[C@@](CN2CCN(C3COC3)CC2)(OC)[C@@H]2CC[C@H]2CN2C[C@@]3(CCCc4cc(Cl)ccc43)COc3ccc(cc32)C(=O)NS1(=O)=O` [Example 187, (1S,3′R,6′R,7′R,8′E,11′S,12′R)-6-chloro-7′-methoxy-12′-(2-methoxyethyl)-11′-methyl-7′-((4-(3-oxetanyl)-1-piperazinyl)methyl)-3,4-dihydro-2H,15′H-spiro[naphthalene-1,22′-[20]oxa[13]thia[1,14]diazatetracyclo [14.7.2.0~3,6~.0~19,24~]pentacosa[8,16,18,24]tetraen]-15′-one 13′,13′-dioxide], the IC50 in test [1] (setting [5]) turned out to be 43 nM; in test [2] (setting [6]), 0.066 nM.
Consider `CO[C@]1(CN2C[C@@H](C)N(C(C)C)[C@@H](C)C2)/C=C/C[C@H](C)[C@@H](C)S(=O)(=O)NC(=O)c2ccc3c(c2)N(C[C@@H]2CC[C@H]21)C[C@@]1(CCCc2cc(Cl)ccc21)CO3` [Example 328, (1S,3′R,6′R,7′R,8′E,11′S,12′R)-6-chloro-7′-(((3R,5S)-3,5-dimethyl-4-(1-methylethyl)-1-piperazinyl)methyl)-7′-methoxy-11′,12′-dimethyl-3,4-dihydro-2H,15′H-spiro[naphthalene-1,22′-[20]oxa[13]thia[1,14]diazatetracyclo [14.7.2.0~3,6~.0~19,24~]pentacosa[8,16,18,24]tetraen]-15′-one 13′,13′-dioxide], for which the concentration for half-maximal inhibition (IC50) in test [1] (setting [5]) is 48 nM; in test [2] (setting [6]) it was 0.087 nM.
In the case of `C[C@@H]1[C@@H](C)CCC[C@@](O)(Cc2ncccn2)[C@@H]2CC[C@H]2CN2C[C@@]3(CCCc4cc(Cl)ccc43)COc3ccc(cc32)C(=O)NS1(=O)=O` [Example 100146, (1S,3′R,6′R,7′R,11′S,12′R)-6-chloro-7′-hydroxy-11′,12′-dimethyl-7′-(2-pyrimidinylmethyl)-3,4-dihydro-2H,15′H-spiro[naphthalene-1,22′-[20]oxa[13]thia[1,14]diazatetracyclo [14.7.2.0~3,6~.0~19,24~]pentacosa[16,18,24]trien]-15′-one 13′,13′-dioxide], the half-inhibitory concentration (IC50) in test [1] (setting [8]) stood at 347 nM; in test [2] (setting [4]), 0.515 nM.
As to `CCO[C@@]1(CN2CCC3(CC2)COC3)/C=C/C[C@H](C)[C@@H](C)S(=O)(=O)NC(=O)c2ccc3c(c2)N(C[C@@H]2CC[C@H]21)C[C@@]1(CCCc2cc(Cl)ccc21)CO3` [Example 109, (1S,3′R,6′R,7′S,8′E,11′S,12′R)-6-chloro-7′-ethoxy-11′,12′-dimethyl-7′-(2-oxa-7-azaspiro[3,5]non-7-ylmethyl)-3,4-dihydro-2H,15′H-spiro[naphthalene-1,22′-[20]oxa[13]thia[1,14]diazatetracyclo [14.7.2.0~3,6~.0~19,24~]pentacosa[8,16,18,24]tetraen]-15′-one 13′,13′-dioxide], the results for the IC50 in test [1] (setting [5]) and in test [2] (setting [6]) were 916 nM and 1.04 nM, respectively.
With `COC[C@@H]1[C@@H](C)C/C=C/[C@](CN2CCN(C(C)C)CC2)(OC)[C@@H]2CC[C@H]2CN2C[C@@]3(CCCc4cc(Cl)ccc43)COc3ccc(cc32)C(=O)NS1(=O)=O` [Example 173], the IC50 in test [1] (setting [5]) turned out to be 323 nM; in test [2] (setting [6]) it was 0.173 nM.
Take `C=CC[C@@]1(O)/C=C/C[C@H](C)[C@@H](C)S(=O)(=O)NC(=O)c2ccc3c(c2)N(C[C@@H]2CC[C@H]21)C[C@@]1(CCCc2cc(Cl)ccc21)CO3` (single isomer, unassigned) [Example 100131]: the results for the IC50 in test [1] (setting [8]) and in test [2] (setting [4]) were 144 nM and 0.163 nM, respectively.
As for `C[C@@H]1[C@@H](C)CCC[C@@](O)([C@@H]2CCN(C)C2=O)[C@@H]2CC[C@H]2CN2C[C@@]3(CCCc4cc(Cl)ccc43)COc3ccc(cc32)C(=O)NS1(=O)=O` [Example 100202, (1S,3′R,6′R,7′S,11′S,12′R)-6-chloro-7′-hydroxy-11′,12′-dimethyl-7′-((3S)-1-methyl-2-oxo-3-pyrrolidinyl)-3,4-dihydro-2H,15′H-spiro[naphthalene-1,22′-[20]oxa[13]thia[1,14]diazatetracyclo [14.7.2.0~3,6~.0~19,24~]pentacosa[16,18,24]trien]-15′-one 13′,13′-dioxide], the IC50 in test [1] (setting [3]) is 928 nM; in test [2] (setting [4]), 0.352 nM.
As for `Cc1ccnc(C[C@@]2(O)/C=C/C[C@H](C)[C@@H](C)S(=O)(=O)NC(=O)c3ccc4c(c3)N(C[C@@H]3CC[C@H]32)C[C@@]2(CCCc3cc(Cl)ccc32)CO4)c1` [Example 100532, (1S,3′R,6′R,7′R,8′E,11′S,12′R)-6-chloro-7′-hydroxy-11′,12′-dimethyl-7′-((4-methyl-2-pyridinyl)methyl)-3,4-dihydro-2H,15′H-spiro[naphthalene-1,22′-[20]oxa[13]thia[1,14]diazatetracyclo [14.7.2.0~3,6~.0~19,24~]pentacosa[8,16,18,24]tetraen]-15′-one 13′,13′-dioxide], the IC50 in test [1] (setting [8]) stood at 8640 nM; in test [2] (setting [4]), 0.053 nM.
In the case of `C[C@@H]1[C@@H](C)C/C=C/[C@@](O)(C#CCCN(C)C)[C@@H]2CC[C@H]2CN2C[C@@]3(CCCc4cc(Cl)ccc43)COc3ccc(cc32)C(=O)NS1(=O)=O` [Example 100309, (1S,3′R,6′R,7′S,8′E,11′S,12′R)-6-chloro-7′-(4-(dimethylamino)-1-butyn-1-yl)-7′-hydroxy-11′,12′-dimethyl-3,4-dihydro-2H,15′H-spiro[naphthalene-1,22′-[20]oxa[13]thia[1,14]diazatetracyclo [14.7.2.0~3,6~.0~19,24~]pentacosa[8,16,18,24]tetraen]-15′-one 13′,13′-dioxide], the half-maximal inhibitory concentration (IC50) was determined as 385 nM in test [1] (setting [3]) and 0.244 nM in test [2] (setting [4]).
With `CCO[C@]1(CN2CCN3CCS(=O)(=O)C[C@@H]3C2)/C=C/C[C@H](C)[C@@H](C)S(=O)(=O)NC(=O)c2ccc3c(c2)N(C[C@@H]2CC[C@H]21)C[C@@]1(CCCc2cc(Cl)ccc21)CO3` [Example 121], the IC50 in test [1] (setting [7]) was found to be 120 nM; in test [2] (setting [6]) it was 0.084 nM.
